Experimental data reported in patent publication US20070015733A1, “Aryl Phosphate Derivatives of d4T having Activity Against Resistant HIV Strains” (Parker Hughes Institute, priority 1998, published 2007).
Read-outs that look alike come from different tables or passages of the source.

Key:
[1] = test system: HIV-1 A17-variant (Y181C+K103N mutant, NNRTI-resistant); test: p24 antigen assay, A17-variant strain in PBMC; format: cell-based; conditions: Human immunodeficiency virus 1, PBMC
Source text: In vitro assays of anti-HIV-1 activity.
Viruses. 20 primary clinical isolates with genotypic and/or phenotypic NRTI-resistance (isolated in the laboratory of D. Richman) and 10 clinical isolates with phenotypic stavudine (d4T) resistance (obtained through the AIDS Research and Reference Reagent Program, NIAID) were used in the current study. The HIV-1 strains HTLVIIIB (wildtype RT, NRTI-sensitive, NNRTI-sensitive), A17 (Y181 C mutant, NNRTI-resistant), A17-variant (Y181C+K103N mutant, NNRTI-resistant), and RT-MDR (M41 L, V106N, T215Y; NRTI-resistant, NNRTI-resistant) were also obtained from the AIDS Research and Reference Reagent Program, NIAID.
Antiviral susceptibility assays.

HIV-1 HTLVIIIB = test: microbe, parasite or virus in culture
Method in brief: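 PHA- and IL-2-stimulated human PBMC from HIV-negative donors were infected with HIV-1 (MOI 0.001–0.1, 1 h, 37 °C) and cultured with compound (0.0001–100 μM). Supernatant p24 was measured by EIA on day 6 or 7; percent inhibition was calculated against untreated infected controls and IC50 was derived from it.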

[2] = test system: NRTI-resistant recombinant HIV-1 isolates; test: Documented fold decreased susceptibility of recombinant HIV-1 clones; format: cell-based; conditions: for mean reduction in susceptibility: mean over 6 recombinant clones; for median reduction in susceptibility: median over 6 recombinant clones
[3] = Human immunodeficiency virus 1, PBMC
[4] = Human immunodeficiency virus 1, PBMC, in Homo sapiens, read-out: IC50, compound 1c compared to zidovudine
[5] = Human immunodeficiency virus 1, PBMC, in Homo sapiens, read-out: IC90, compound 1c compared to zidovudine
[6] = Human immunodeficiency virus 1, read-out: IC50 HTLVIIIB

Row | SMILES | IC50 ([1]; read-out: IC50 A17V) | SI(CC50/IC50) (HIV-1 HTLVIIIB) | IC50 (HIV-1 HTLVIIIB; [3]) | IC90 (HIV-1 HTLVIIIB; [3]) | IC50 (HIV-1 HTLVIIIB; [4]) | IC90 (HIV-1 HTLVIIIB; [5]) | IC50 (HIV-1 HTLVIIIB; [6]) | mean reduction in susceptibility [2] | median reduction in susceptibility [2] | IC50 [1] | SI(CC50/IC50) (HIV-1 HTLVIIIB; HTLVIIIB, PBMC)
1 | Cc1cn([C@H]2C[C@H](N=[N+]=[N-])[C@@H](CO)O2)c(=O)[nH]c1=O [AZT, 3′-azido-3′-deoxythymidine] | 0.005 nM | 31,867 | 3 ± 1 nM | 93 ± 34 nM | 3 ± 1 nM | 93 ± 34 nM | 4 ± 1 nM | 495.7 fold | 490 fold |  | 
2 | COC(=O)C(C)NP(=O)(OC[C@@H]1C=C[C@H](n2cc(C)c(=O)[nH]c2=O)O1)Oc1ccc(Br)cc1 (some centres unmarked) [Compound 1c, d4T-5′-[p-bromo-phenylmethoxyalaninyl phosphate]] | 47 ± 27 nM |  | 1 nM | 52 ± 24 nM | 1 nM | 45 ± 28 nM | 1 nM |  |  | < 1 nM | 
3 | Cc1cn([C@H]2C=C[C@@H](CO)O2)c(=O)[nH]c1=O [d4T, 2′,3′-didehydro-2′,3′-dideoxythymidine] |  | 196 | 23 ± 8 nM | 1470 ± 614 nM |  |  | 18 nM | 8.1 fold | 6.5 fold |  | 
4 | Cc1ccnc2c1NC(=O)c1cccnc1N2C1CC1 [nevirapine] |  |  | 24 ± 7 nM | 1100 ± 478 nM |  |  |  |  |  | 32000 ± 7000 nM | 213
